Measurements taken from US20260102451A1, “RUMINANT METHANE PRODUCTION INHIBITOR” (SDS BIOTECH K.K., priority 2022, published 2026).

Columns and labels:
Assay type in all cases: cell-based, Holstein milking cows
[1] = test system: rumen fluid culture; experiment: Methane production measurement system using rumen culture (Example 1); settings: for methane amount (mean ± SD): 39° C., 17 hours
Method: Cashew nut shell liquid (CNSL) cold-pressed and extracted from cashew nut shells was obtained. For culture inoculum, rumen fluids (filtrates through quadruple gauzes) collected orally from Holstein milking cows 90 days or longer after calving were used. 4 mL of the rumen fluid and 6 mL of artificial saliva (McDougal's artificial saliva) were added, and the mixture was used for culturing. […] Similarly, DL-malic acid and fumaric acid were dissolved in ethanol and added such that they had desired concentrations in the solution. To equalize the effect of ethanol, only ethanol was added to a no-addition (control) area. Thereafter, the resulting products were left for several hours to vaporize ethanol, to which 50 mg of corn starch, 75 mg of concentrate feed powder, and 75 mg of timothy hay powder were added as culture substrates. […] To these test tubes, a total of 10 ml of diluted rumen fluid and artificial saliva in the above mixture ratio was added, and the tubes were incubated anaerobically in an incubator (39° C., 17 hours) with butyl rubber caps and plastic screw caps provided while nitrogen gas was blown into the head space. Each culturing was performed in triplicate. The concentrations of methane and acetic acid in volatile fatty acids were both analyzed by FID gas chromatography.

[2] = test system: rumen fluid culture; experiment: Methane production measurement system using rumen culture (Example 3); settings: for methane amount (mean ± SD): 39° C., 17 hours; for methane amount % reduction vs cont: ^ = increase
Method: Cashew nut shell liquid (CNSL) cold-pressed and extracted from cashew nut shells was obtained. For culture inoculum, rumen fluids (filtrates through quadruple gauzes) collected orally from Holstein milking cows 90 days or longer after calving were used. 4 mL of the rumen fluid and 6 mL of artificial saliva (McDougal's artificial saliva) were added and the mixture was used for culturing. […] CNSL was dissolved in ethanol and added to a Hungate tube such that it had any concentration in the solution. […] To equalize the effect of ethanol, only ethanol was added to a no-addition (control) area. […] To these test tubes, a total of 10 mL of diluted rumen fluid and artificial saliva in the above mixture ratio was added, and the tubes were incubated anaerobically in an incubator (39° C., 17 hours) with butyl rubber caps and plastic screw caps provided while nitrogen gas was blown into the head space. Each culturing was performed in triplicate. The concentrations of methane and acetic acid in volatile fatty acids were both analyzed by FID gas chromatography.

[3] = test system: rumen fluid culture; experiment: Methane production measurement system using rumen culture (Example 2); settings: for methane amount (mean ± SD): 39° C., 17 hours
Method: Cashew nut shell liquid (CNSL) cold-pressed and extracted from cashew nut shells was obtained. For culture inoculum, rumen fluids (filtrates through quadruple gauzes) collected orally from Holstein milking cows 90 days or longer after calving were used. 4 mL of the rumen fluid and 6 mL of artificial saliva (McDougal's artificial saliva) were added and the mixture was used for culturing. […] CNSL was dissolved in ethanol and added to a Hungate tube such that it had any concentration in the solution. […] To equalize the effect of ethanol, only ethanol was added to a no-addition (control) area. Thereafter, the resulting products were left for several hours to vaporize ethanol, to which 50 mg of corn starch, 75 mg of concentrate feed powder, and 75 mg of timothy hay powder were added as culture substrates. To these test tubes, a total of 10 ml of diluted rumen fluid and artificial saliva in the above mixture ratio was added, and the tubes were incubated anaerobically in an incubator (39° C., 17 hours) with butyl rubber caps and plastic screw caps provided while nitrogen gas was blown into the head space. Each culturing was performed in triplicate. The concentrations of methane and acetic acid in volatile fatty acids were both analyzed by FID gas chromatography.

[4] = 1000 mg/L alone, ▴ = reduction, ^ = increase

| SMILES | acetate amount % vs cont ([1]; 500 mg/L alone) [%] | acetate amount (mean ± SD) ([1]; 500 mg/L alone) [g/L] | methane amount (mean ± SD) ([1]; 500 mg/L alone) [mL/tube] | acetate amount % vs cont ([2]; 500 mg/L alone) [%] | acetate amount (mean ± SD) ([2]; 500 mg/L alone) [g/L] | methane amount (mean ± SD) ([2]; 500 mg/L alone) [mL/tube] | acetate amount % vs cont ([2]; 1000 mg/L alone) [%] | acetate amount (mean ± SD) ([2]; 1000 mg/L alone) [g/L] | methane amount (mean ± SD) ([2]; 1000 mg/L alone) [mL/tube] | acetate amount % vs cont ([2]; 2000 mg/L alone) [%] | acetate amount (mean ± SD) ([2]; 2000 mg/L alone) [g/L] | methane amount (mean ± SD) ([2]; 2000 mg/L alone) [mL/tube] | methane amount % reduction vs cont ([2]; 2000 mg/L alone) | acetate amount % vs cont ([3]; 500 mg/L alone) [%] | acetate amount (mean ± SD) ([3]; 500 mg/L alone) [g/L] | methane amount (mean ± SD) ([3]; 500 mg/L alone) [mL/tube] | acetate amount % vs cont ([3]; 1000 mg/L alone) [%] | acetate amount (mean ± SD) ([3]; 1000 mg/L alone) [g/L] | methane amount (mean ± SD) ([3]; 1000 mg/L alone) [mL/tube] | further results |
| --- | --- | --- | --- | --- | --- | --- | --- | --- | --- | --- | --- | --- | --- | --- | --- | --- | --- | --- | --- | --- |
| O=C(O)CC(O)C(=O)O (racemic) [DL-malic acid] | 123 | 4.18 ± 0.11 | 6.22 ± 0.93 | 114 | 4.18 ± 0.07 | 6.13 ± 0.92 | 102 | 3.76 ± 0.27 | 6.13 ± 0.00 | 105 | 3.85 ± 0.38 | 5.95 ± 0.70 | ▴3% | – | – | – | – | – | – | acetate amount % vs cont ([1]; 1000 mg/L alone): 111%; acetate amount (mean ± SD) ([1]; 1000 mg/L alone): 3.76 ± 0.11 g/L; methane amount (mean ± SD) ([1]; 1000 mg/L alone): 5.47 ± 0.01 mL/tube; methane amount % reduction vs cont [1, 4]: ▴0%; improvement in the methane reduction rate ([1]; CNSL and garlic powder in combination, 500 to 1,000 mg/L DL-malic acid alone, 100 to 200 mg/L garlic powder): did not show significant improvement |
| O=C(O)CC(O)(CC(=O)O)C(=O)O [citric acid] | – | – | – | 99 | 3.64 ± 0.70 | 6.53 ± 0.43 | 102 | 3.76 ± 1.10 | 6.41 ± 1.49 | 128 | 4.71 ± 0.15 | 5.45 ± 2.09 | ▴11% | 115 | 4.25 ± 0.16 | 5.12 ± 0.67 | 119 | 4.42 ± 0.14 | 3.77 ± 1.64 | methane amount % reduction vs cont [3, 4]: ▴21% |
| O=C(O)/C=C/C(=O)O [fumaric acid] | 114 | 3.86 ± 0.12 | 5.94 ± 0.01 | – | – | – | – | – | – | – | – | – | – | – | – | – | – | – | – | – |
| CC(=O)C(=O)O [pyruvic acid] | – | – | – | – | – | – | – | – | – | – | – | – | – | 109 | 4.04 ± 0.31 | 5.58 ± 1.26 | 118 | 4.36 ± 0.02 | 5.39 ± 0.04 | – |
| O=C(O)CCC(=O)O [succinic acid] | – | – | – | – | – | – | – | – | – | – | – | – | – | 115 | 4.26 ± 0.42 | 5.28 ± 1.76 | 106 | 3.91 ± 0.58 | 6.24 ± 0.83 | – |
